From US20240174727A1, “LONG-ACTING NATRIURETIC PEPTIDES AND USES THEREOF” (Eli Lilly and Company, priority 2022, published 2024)
Like-named read-outs stand apart in the source and are kept apart here. Numbered stars: 1 amine (or outer) side, 2 acyl side, 3 side chain; on linkers, the order of the positions; unused ones are H or OH. Bridge positions count the residues as written; N and C are the ends. Square brackets hold non-standard residues; d marks the D form. Peptide text beside a SMILES is read from it. * marks the point of attachment. C20 diacid = O=C(O)CCCCCCCCCCCCCCCCCCC(=O)*; γGlu = O=C(O)[C@H](CCC(=O)[*:2])N[*:1]; 4Pal = N[C@@H](Cc1ccncc1)C(=O)O

Molecular target: T1, rat NPRA (Rattus norvegicus, UniProt P18910)
T1 construct: Full-Length cDNA Cloning and Generation of Cell Lines Overexpressing Natriuretic Peptide Receptors (NPRs); expressed in transfected cells; host or cells: Jump-in T-Rex HEK293 cells, pJTI R4 CMV-TO MCS pA vector, tetracycline induction
T1 sequence (P18910 29-1057): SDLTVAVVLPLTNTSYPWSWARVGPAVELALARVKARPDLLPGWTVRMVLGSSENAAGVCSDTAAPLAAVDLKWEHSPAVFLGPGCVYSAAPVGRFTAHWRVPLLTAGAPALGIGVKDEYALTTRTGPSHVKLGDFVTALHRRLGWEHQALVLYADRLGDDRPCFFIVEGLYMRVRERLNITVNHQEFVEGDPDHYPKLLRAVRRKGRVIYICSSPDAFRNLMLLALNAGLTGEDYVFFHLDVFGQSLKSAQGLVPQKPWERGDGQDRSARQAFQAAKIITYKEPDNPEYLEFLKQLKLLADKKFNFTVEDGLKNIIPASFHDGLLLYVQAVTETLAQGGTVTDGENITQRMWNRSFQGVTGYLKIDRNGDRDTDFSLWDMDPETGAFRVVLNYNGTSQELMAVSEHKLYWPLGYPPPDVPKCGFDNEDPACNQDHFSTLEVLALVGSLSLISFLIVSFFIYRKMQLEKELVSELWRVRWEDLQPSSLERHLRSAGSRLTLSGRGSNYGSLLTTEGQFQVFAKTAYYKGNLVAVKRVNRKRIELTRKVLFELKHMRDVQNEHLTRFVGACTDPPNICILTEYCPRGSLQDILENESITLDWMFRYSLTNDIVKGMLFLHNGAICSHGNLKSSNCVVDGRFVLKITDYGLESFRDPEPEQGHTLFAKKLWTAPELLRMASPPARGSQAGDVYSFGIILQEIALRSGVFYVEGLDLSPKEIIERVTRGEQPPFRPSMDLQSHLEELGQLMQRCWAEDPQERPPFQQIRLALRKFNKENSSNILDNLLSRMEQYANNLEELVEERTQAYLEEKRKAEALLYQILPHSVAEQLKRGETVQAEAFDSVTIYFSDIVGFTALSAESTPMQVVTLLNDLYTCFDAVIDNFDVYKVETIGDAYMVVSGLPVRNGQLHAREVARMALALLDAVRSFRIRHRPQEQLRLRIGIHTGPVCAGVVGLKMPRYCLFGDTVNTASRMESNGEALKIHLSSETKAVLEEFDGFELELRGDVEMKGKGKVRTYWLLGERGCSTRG
Test: Rat NPRA cGMP activity assay (HTRF) in HEK293 cells overexpressing NPRA
Type: cell-based
Procedure: All sequences were verified by full-length sequencing performed by ACGT DNA Sequencing Services (Wheeling, IL). The target cDNA was cloned into pJTI R4 CMV-TO MCS pA vector and then co-transfected with pJT1R4 Int vector into Jump-in™ T-Rex™ HEK293 cells for mammalian inducible expression using Jump-in™ T-Rex™ HEK293 kit and Lipofectamine LTX and Plus Reagent following manufacturer's protocols, as briefly described below.
Jump-in™ T-Rex™ HEK293 cells were plated in a BioCOAT® poly-D-lysine coated 6-well plate (Becton Dickinson, cat no. 354413) at 1 million cells/well in 2 mL culture medium and incubated for 18 h at 37° C. and 5% CO2 to 50-70% confluence. A cDNA mix was made in a 50 mL tube by adding 1.5 μg target cDNA, 1.5 μg pJT1R4 Int vector, 3 μL Plus Reagent, and 300 μL Opti-MEM I sequentially into the tube. A reagent mix was made in a separate 50 mL tube by adding 7.5 μL Lipofectamine LTX into 300 μL Opti-MEM I. The mixtures were incubated for 5 min at room temperature. The cDNA mix was then transferred into the reagent mix, mixed well, and incubated for additional 30 min at room temperature. A 500 μL of cDNA/Lipofectamine complex was then transferred to the wells of the cell plate in which the culture medium was changed to 2 mL of transfection medium containing DMEM with 4.5 g/L D-glucose supplemented with 10% FBS-HI and 20 mM HEPES. Transfected cells were cultured for 48 h in an incubator at 37° C. and 5% CO2. A subclone or pool from each overexpressing cell line was maintained in culture medium with the addition of 2 mg/mL G418 sulfate for the clone selection based on its built-in resistance to G418 sulfate for at least 3 weeks with medium changed every 2-3 days.
NPRs were overexpressed in T-Rex™ HEK293 cells following the induction with 300 ng/mL tetracycline in culture medium for 48 h. Induced cell lines in an exponential growth phase were treated with 0.05% trypsin-EDTA for a few seconds at room temperature, harvested in cell medium containing FBS to neutralize the trypsin, counted, and cryopreserved at the density of 2 million cells/mL in cell preservation solution containing FBS-HI with 5% DMSO. Cryopreserved cells were stored at −80° C. for a few days prior to transferring to a liquid nitrogen tank. Induced cell lines were then used for suspension assays to measure the activity of polypeptides to stimulate cGMP production in cGMP assays or for the preparation of cell membranes to measure the binding activity of polypeptides in competitive radioligand binding assays, as described below.
Test polypeptides were added starting at 10 μM concentration and at 10-fold decreasing concentrations to obtain 8-point concentration-response curves (i.e., 10 μM to 1 pM). The quantity of cGMP generated was detected using HTRF® technology and normalized to maximum amount produced by 100 nM amidated rat ANP and the minimum amount produced by assay buffer. Detailed steps are outlined below.
Stock solutions of test polypeptides (2 mM) dissolved in DMSO were first diluted 100-fold in assay buffer containing HBSS with Ca^2+ and Mg^2+, 5 mM HEPES, 0.5 mM IBMX, and 0.1% BSA or 0.1% casein (pH 7.4). The polypeptides were further serially diluted in 1:10 dilution steps in assay buffer containing 0.1% BSA or 0.1% casein to generate 8-point 2× working stock solutions ranging from 20 μM to […].
A 10 μL cell suspension containing 4000 cells was plated in Costar® half-area white opaque 96-well plates (Corning, cat no. 3693). Then 10 μL of assay buffer (basal activity), 200 nM of amidated rat ANP (maximum activity) or 2× working stock solutions of test polypeptides were transferred into the plate. Final concentration of DMSO in each well was 0.5%. The plate was shaken for 15 sec and then incubated for 40 min at room temperature.
The cGMP generated was measured using cGMP kit following the manufacturer's directions, as described below.

[1] = cGMP Assay (EC50, pM) w/BSA rNPRA, assay buffer with 0.1% BSA

SMILES	EC50 (assay buffer with 0.1% BSA, read-out: cGMP Assay (EC50, pM) w/BSA rNPRA)	EC50 [1]	EC50 (cGMP Assay (EC50, pM) w/Casein rNPRA, assay buffer with 0.1% casein)
CC[C@H](C)[C@@H]1NC(=O)[C@H](CCCNC(=N)N)NC(=O)[C@H](CC(=O)O)NC(=O)[C@H]([C@@H](C)CC)NC(=O)[C@H](CCCNC(=N)N)NC(=O)CNC(=O)CNC(=O)[C@H](Cc2ccccc2)NC(=O)[C@@H](NC(=O)[C@H](CO)NC(=O)[C@H](CO)NC(=O)[C@H](CCCNC(=N)N)NC(=O)[C@H](CCCNC(=N)N)NC(=O)[C@H](Cc2ccncc2)NC(=O)[C@H](CO)NC(=O)CNC(=O)[C@H](CCCCN)NC(=O)[C@H](CCC(=O)O)NC(=O)[C@H](CCCCN)NC(=O)[C@H](CCC(=O)O)NC(=O)[C@H](CCCCN)NC(=O)[C@H](CCC(=O)O)NC(=O)CC[C@H](NC(=O)CCCCCCCCCCCCCCCCCCC(=O)O)C(=O)O)CSSC[C@@H](C(=O)N2CCC[C@H]2C(=O)N[C@@H](CO)C(=O)N[C@@H](Cc2ccccc2)C(=O)N[C@@H](CCCNC(=N)N)C(=O)N[C@@H](Cc2c[nH]cn2)C(N)=O)NC(=O)CNC(=O)[C@H](CC(C)C)NC(=O)CNC(=O)[C@H](CO)NC(=O)[C@H](CCC(N)=O)NC(=O)[C@H](C)NC(=O)CNC1=O [Example 22] ({C20 diacid-γGlu}-EKEKEKGS[4Pal]RRSSCFGGRIDRIGAQSGLGCPSFRH-NH2; disulfide 14-30)	192000 pM	–	–
CC[C@H](C)[C@@H]1NC(=O)[C@H](CCCNC(=N)N)NC(=O)[C@H](CC(=O)O)NC(=O)[C@H]([C@@H](C)CC)NC(=O)[C@H](CCCNC(=N)N)NC(=O)[C@H](CCCCN)NC(=O)CNC(=O)[C@H](Cc2ccccc2)NC(=O)[C@@H](NC(=O)[C@H](CO)NC(=O)[C@H](CO)NC(=O)[C@H](CCCNC(=N)N)NC(=O)[C@H](CCCNC(=N)N)NC(=O)[C@H](Cc2ccncc2)NC(=O)[C@H](CO)NC(=O)CCOCCOCCOCCOCCOCCOCCOCCOCCOCCOCCOCCOCCOCCOCCOCCOCCOCCOCCOCCOCCOCCOCCOCCOCCNC(=O)CNC(=O)[C@H](CCCCN)NC(=O)[C@H](CCC(=O)O)NC(=O)[C@H](CCCCN)NC(=O)[C@H](CCC(=O)O)NC(=O)[C@H](CCCCN)NC(=O)[C@H](CCC(=O)O)NC(=O)CC[C@H](NC(=O)CCCCCCCCCCCCCCCCCCC(=O)O)C(=O)O)CSCSC[C@@H](C(=O)N2CCC[C@H]2C(=O)N[C@@H](CO)C(=O)N[C@@H](Cc2ccccc2)C(=O)N[C@@H](CCCNC(=N)N)C(=O)N[C@@H](Cc2c[nH]cn2)C(=O)NCC(=O)N[C@@H](CO)C(=O)N2CCC[C@H]2C(=O)N[C@@H](CO)C(=O)N[C@@H](CO)C(=O)NCC(=O)N[C@@H](C)C(=O)N2CCC[C@H]2C(=O)N2CCC[C@H]2C(=O)N2CCC[C@H]2C(=O)N[C@@H](CO)C(N)=O)NC(=O)CNC(=O)[C@H](CC(C)C)NC(=O)CNC(=O)[C@H](CO)NC(=O)[C@H](Cc2ccc(O)cc2)NC(=O)[C@H](Cc2c[nH]cn2)NC(=O)CNC1=O [Example 115]	–	100000 pM	–
CC[C@H](C)[C@@H]1NC(=O)[C@H](CCCNC(=N)N)NC(=O)[C@H](CC(=O)O)NC(=O)[C@H]([C@@H](C)CC)NC(=O)[C@H](CCCNC(=N)N)NC(=O)[C@H](CCCCN)NC(=O)CNC(=O)[C@H](Cc2ccccc2)NC(=O)[C@@H](NC(=O)[C@H](CO)NC(=O)[C@H](CO)NC(=O)[C@H](CCCNC(=N)N)NC(=O)[C@H](CCCNC(=N)N)NC(=O)[C@H](Cc2ccncc2)NC(=O)[C@H](CO)NC(=O)COCCOCCNC(=O)COCCOCCNC(=O)COCCOCCNC(=O)COCCOCCNC(=O)COCCOCCNC(=O)COCCOCCNC(=O)CNC(=O)[C@H](CCCCN)NC(=O)[C@H](CCC(=O)O)NC(=O)[C@H](CCCCN)NC(=O)[C@H](CCC(=O)O)NC(=O)[C@H](CCCCN)NC(=O)[C@H](CCC(=O)O)NC(=O)CC[C@H](NC(=O)CCCCCCCCCCCCCCCCCCC(=O)O)C(=O)O)CSCSC[C@@H](C(=O)N2CCC[C@H]2C(=O)N[C@@H](CO)C(=O)N[C@@H](Cc2ccccc2)C(=O)N[C@@H](CCCNC(=N)N)C(=O)N[C@@H](Cc2c[nH]cn2)C(=O)NCC(=O)N[C@@H](CO)C(=O)NCC(=O)N[C@@H](CO)C(=O)N2CCC[C@H]2C(=O)N[C@@H](CO)C(=O)N[C@@H](CO)C(=O)NCC(=O)N[C@@H](C)C(=O)N2CCC[C@H]2C(=O)N2CCC[C@H]2C(=O)N2CCC[C@H]2C(=O)N[C@@H](CO)C(=O)NCC(N)=O)NC(=O)CNC(=O)[C@H](CC(C)C)NC(=O)CNC(=O)[C@H](CO)NC(=O)[C@H](Cc2ccc(O)cc2)NC(=O)[C@H](Cc2c[nH]cn2)NC(=O)CNC1=O [Example 117]	–	200000 pM	–
CC[C@H](C)[C@@H]1NC(=O)[C@H](CCCNC(=N)N)NC(=O)[C@H](CC(=O)O)NC(=O)[C@H]([C@@H](C)CC)NC(=O)[C@H](CCCNC(=N)N)NC(=O)[C@H](CCCCN)NC(=O)CNC(=O)[C@H](Cc2ccccc2)NC(=O)[C@@H](NC(=O)[C@H](CO)NC(=O)[C@H](CO)NC(=O)[C@H](CCCNC(=N)N)NC(=O)[C@H](CCCNC(=N)N)NC(=O)[C@H](Cc2ccncc2)NC(=O)[C@H](CO)NC(=O)COCCOCCNC(=O)COCCOCCNC(=O)COCCOCCNC(=O)COCCOCCNC(=O)COCCOCCNC(=O)COCCOCCNC(=O)COCCOCCNC(=O)COCCOCCNC(=O)CNC(=O)[C@H](CCCCN)NC(=O)[C@H](CCC(=O)O)NC(=O)[C@H](CCCCN)NC(=O)[C@H](CCC(=O)O)NC(=O)[C@H](CCCCN)NC(=O)[C@H](CCC(=O)O)NC(=O)CC[C@H](NC(=O)CCCCCCCCCCCCCCCCCCC(=O)O)C(=O)O)CSCSC[C@@H](C(=O)N2CCC[C@H]2C(=O)N[C@@H](CO)C(=O)N[C@@H](Cc2ccccc2)C(=O)N[C@@H](CCCNC(=N)N)C(=O)N[C@@H](Cc2c[nH]cn2)C(=O)NCC(=O)N[C@@H](CO)C(=O)N2CCC[C@H]2C(=O)N[C@@H](CO)C(=O)N[C@@H](CO)C(=O)NCC(=O)N[C@@H](C)C(=O)N2CCC[C@H]2C(=O)N2CCC[C@H]2C(=O)N2CCC[C@H]2C(=O)N[C@@H](CO)C(N)=O)NC(=O)CNC(=O)[C@H](CC(C)C)NC(=O)CNC(=O)[C@H](CO)NC(=O)[C@H](Cc2ccc(O)cc2)NC(=O)[C@H](Cc2c[nH]cn2)NC(=O)CNC1=O [Example 107]	–	149000 pM	3770 pM
